Legend:
Type in all cases: biochemical
[1] = target: T1, D-alanine aminotransferase (Dat) (Staphylococcus aureus, UniProt A0A0H2XHU6); assay: lactate dehydrogenase-coupled assay of pyruvate production from D-alanine, A340
T1 construct: recombinant HIS-tagged wild-type Dat from JE2, expressed from pET28b in E. coli
T1 sequence (A0A0H2XHU6 1-282): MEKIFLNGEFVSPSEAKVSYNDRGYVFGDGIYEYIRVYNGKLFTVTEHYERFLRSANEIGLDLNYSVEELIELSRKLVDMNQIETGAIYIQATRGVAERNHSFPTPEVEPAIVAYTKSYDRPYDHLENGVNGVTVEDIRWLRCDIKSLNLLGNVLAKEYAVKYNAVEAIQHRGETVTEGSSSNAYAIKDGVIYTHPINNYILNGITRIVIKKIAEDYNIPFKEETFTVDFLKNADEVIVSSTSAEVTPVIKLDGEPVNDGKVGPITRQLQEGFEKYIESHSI

[2] = target: T2, D-alanine aminotransferase (Dat-S180F) (Staphylococcus aureus, UniProt A0A0H2XHU6, S180F); assay: as above
T2 construct: recombinant HIS-tagged Dat-S180F from BCDA1, expressed from pET28b in E. coli
T2 sequence (A0A0H2XHU6 1-282 S180F): T1 sequence (A0A0H2XHU6 1-282)

[3] = target: T3, D-alanine aminotransferase (Dat) (Staphylococcus aureus, UniProt Q5HF24); assay: lactate dehydrogenase-coupled assay, turnover of […] D-alanine to pyruvate
T3 construct: recombinant HIS-tagged wild-type Dat

Row | Compound | IC50 [1] | IC50 [2] | lactate dehydrogenase-coupled assay, turnover of 25 mM D-alanine to pyruvate [3]
1 | N[C@H](CCl)C(=O)O [BCDA, β-chloro-D-alanine] | 96.8 ± 12 µM | 34 ± 4.7 µM | 
2 | C[C@@H](N)C(=O)O [D-alanine] |  |  | comparison of wild-type Dat (green) and Dat-S180F (violet) enzymatic production of pyruvate from D-alanine

From publication PMC12723384, “A S180F substitution in D-alanine aminotransferase confers resistance to β-chloro-D-alanine in Staphylococcus aureus” (The Journal of Biological Chemistry, 2025)
